Series [1] is described as follows: Circulating (R)-3-hydroxybutyrate levels and gut uptake after consumption of esters. It counts as in vivo.
In another series the test system is noradrenaline. The experiment in a line: Urinary total nocturnal noradrenaline excretion (FIG. 9b). It is filed as in vivo, human. To be noted: before and during 3-week overreaching/overtraining period; consistently elevated in placebo. How it is done:
(§1) A randomized placebo-controlled (ketone ester versus placebo) intervention study was performed. The study involved a pretest and a posttest with a 3-week training overload period in between (Table 1A). During this 3-week period, subjects received either ketone ester or an isocaloric placebo (long chain triglyceride) after each training session and 30 minutes before sleep. The conditions were blinded to both the subjects and the investigators until completion of all the experiments.
(§2) Immediately following each training session and 30 min before sleep, subjects received a recovery drink (6D Recovery Shake, Medix, Oudenaarde, Belgium) containing 1 g carbohydrates per kg body weight, plus 0.35 g whey protein isolate per kg body weight. Additionally, subjects received 0.35 g per kg body weight of a ketone ester drink or an isocaloric placebo (PL; long chain triglycerides) as a separate drink to be ingested together with the carbohydrate/protein recovery drink. The ketone ester supplement (ΔG®) delivered pure D-β-hydroxybutyrate-R 1,3 butanediol monoester. These nutritional supplements have been extensively tested before (see for instance Cox et al; Cell Metab 24: 256-268, 2016).
Total nocturnal urine (10 pm to 8 am) was collected during the night before each experimental session in flasks prepared with 10 ml hydrochloric acid. […]

A short description of series [2]: Submaximal heart rate during first 5 minutes of 30-min time trial (FIG. 5). The conditions noted are these: 3-week training overload period. It counts as in vivo, human. As to the method:
as §1
For the first experimental session, after a 10-min warming up (5 min at 100 W, plus 5 min at 150 W), the subjects performed a TT30min. During the first 5 minutes (t0-t5), the workload was set equal to the mean power output achieved during the TT30min in the last familiarization session. From t5 to t25, the subjects adjusted the workload at 5-min intervals according to their subjective perception of fatigue. From t25 to t30, 1-min adjustments were allowed so as to be able to establish full exhaustion by the end of the TT. Immediately after completion of the TT, subjects (1) scored the rate of perceived exertion on a 15-point Borg scale and completed a gastrointestinal symptom questionnaire. Following 15 min of active recovery (cycling @ 50 W), subjects performed a W30s. One day later, the subjects returned to the laboratory for the second experimental session. During this session a VO2max test was performed. […]

Series [3] is described as follows: Blood ketone (β-hydroxybutyrate) levels during 3-week training overload study (FIG. 1). It is filed as in vivo, human. The conditions noted are these: 30 minutes following ingestion; days 6, 13 and 20. How it is done:
as §1
Immediately following each training session and 30 min before sleep, subjects received a recovery drink (6D Recovery Shake, Medix, Oudenaarde, Belgium) containing 1 g carbohydrates per kg body weight, plus 0.35 g whey protein isolate per kg body weight. Additionally, subjects received 0.35 g per kg body weight of a ketone ester drink or an isocaloric placebo (PL; long chain triglycerides) as a separate drink to be ingested together with the carbohydrate/protein recovery drink. […]
Furthermore, during TT30min small capillary blood samples (5 μl) were collected at 5-min time intervals via a small puncture in the earlobe. These microsamples were immediately analyzed for blood lactate concentration (Lactate Pro®, Arkray, Kyoto, Japan), blood glucose and βHB levels (GlucoMen Lx plus-meter with Lx glucose or Lx β-ketone strips, Menarini Diagnostics, Firenze, Italy). […]

The nature of series [4]: DXA scanning before and after 3-week training period (FIG. 6). It is filed as in vivo, human. The conditions noted are these: 3-week training overload period. As to the method:
as §1, §2

For series [5] the following is noted: acute ingestion, elite cyclists; cited from earlier work.
Series [6] is described as follows: 30-minute time trial after 2 h submaximal constant-load exercise bout, day 18 (FIG. 3). It is filed as in vivo, human. How it is done:
as §1, §2
FIG. 3 illustrates the 30 minute time trial performance results at the end of a 120 minute constant-load endurance training session at day 18 of the training period. […]

Series [7] is described as follows: Training volume / work per week and per session (FIG. 10, 11). It is filed as in vivo, human. How it is done: Following the pre-test, participants were enrolled in a 3-week supervised and fully-controlled exercise training program. Each week of the training program consisted of six training days with an interval training in the morning and an endurance training in the evening, for a total of twelve training sessions per week (Table 2).
The number of maximal sprints in the HIIT sessions increased from 4 in week 1, to 5 in week 2 and 6 in the final week. Endurance sessions were performed in the evening and consisted of 150 min of cycling at 65% VO2max. During the 3-week training period the subjects abstained from any exercise other than the exercise prescribed by the study protocol.
as §2

The test system of another series is leptin. The experiment in a line: Leptin levels in fasted plasma samples (FIG. 8). It counts as in vivo, human. How it is done:
as §1, §2
Blood samples (2×5 ml) were taken from an arm vein by use of the Venoject® system into BD Vacutainer® tubes. […]

A short description of series [8]: Food (energy) intake during 3-week training period (FIG. 7). It counts as in vivo, human. The conditions noted are these: placebo energy intake stable. How it is done:
as §1, §2

The nature of series [9]: 30-minute simulated cycling time trial (TT30min) performance (FIG. 2). It is filed as in vivo, human. How it is done:
as §1
Three weeks prior to the start of the study, subjects underwent a sport medical screening by a certified sports physician. One week later, the subjects participated in three familiarization sessions (Table 1B) to get familiar with the experimental procedures. […] Respiratory gas exchange was measured continuously during the test (Cortex Metalyzer II, Leipzig, Germany), and the highest oxygen uptake measured over a 30-s period defined as the maximal oxygen uptake (VO2max). […]
For the first experimental session, after a 10-min warming up (5 min at 100 W, plus 5 min at 150 W), the subjects performed a TT30min. […] Immediately after completion of the TT, subjects (1) scored the rate of perceived exertion on a 15-point Borg scale and completed a gastrointestinal symptom questionnaire. […]

A short description of series [10]: Peak heart rate during 90 second all-out isokinetic sprint (FIG. 4). It is filed as in vivo, human. To be noted: 90 second all-out isokinetic sprints, 3-week training overload period. How it is done:
as §1, §2
FIG. 4A gives the absolute values, and FIG. 4B gives the decrease in heart rate (Δ) from the pre-test values. […]

Take “(R)-3-hydroxybutyrate-glycerol partial ester”: in series [1] (upon consumption of a drink), the “circulating levels of (R)-3-hydroxybutyrate in the blood” value is “high circulating levels” and the “level of uptake in the gut” value is “surprisingly high level of uptake”.
`C[C@@H](O)CCOC(=O)C[C@@H](C)O` [ketone ester, (R)-3-hydroxybutyl (R)-3-hydroxybutyrate]: in the series with noradrenaline, the “urinary total nocturnal noradrenaline excretion” value was “stable at baseline levels”. For the same compound, the “decline in submaximal heart rate vs. pre-test, versus placebo” value in [2] is reported as “significantly less”. In addition, in [3], the “blood β-hydroxybutyrate levels versus placebo drink” value is on record as “significantly higher”. In [4], the “bone mineral content in post-test compared to placebo” value is “increased bone mineral content”, the “changes in body fat compared with placebo” value is recorded as “did not alter” and the “changes in lean body mass compared with placebo” value is “did not alter”. In addition, the endurance performance entry in [5] is reported as “improve endurance performance”. Also, in series [1] (in vivo), the “circulating levels of (R)-3-hydroxybutyrate in the blood” value is given as “high circulating levels” and the “level of uptake in the gut” value was “surprisingly high level of uptake”. The “increase in mean power output compared with placebo drink” value in series [6] (day 18 of training period) was roughly 15%. Moreover, the “average power in 30 minute time trial versus placebo group” value in series [6] (end of 120 minute constant-load endurance session, day 18) is given as “significantly higher”. In addition, the “workload effected during each single training session versus placebo” value in series [7] (from day 20) was “higher”. The “training load versus placebo” value in [7] (week 3) is reported as “definitely higher”. For the same compound, in series [7] (weeks 1 and 2), the “training load versus placebo” value is “no difference”. In addition, in the series on leptin (all timepoints after the pretest), the “leptin levels compared to placebo” value is reported as “higher at all timepoints”. The “leptin levels from pretest to posttest” value in the series with leptin (significantly dropped in placebo group) is reported as “constant”. Besides, the “daily energy intake from week 1 to week 3” value in [8] was “spontaneously increased”. Further, the “increase in power output from pre-test” value in series [9] (following 1 week of tapering after 3-week training overload period, not increased in placebo group) was roughly 8%. In addition, in series [9] (post-test and follow-up 1), the “average power during 30 minute time trial versus placebo” value is “significantly higher”. In [10], the “decline in maximum (peak) heart rate from pre-test, versus placebo” value is “significantly less”.

The values above are taken from patent US12290496B2, “Compounds for use in preventing or treating athlete overtraining” (TDELTAS LIMITED, priority 2018, dated 2025).
